Test results taken from patent US20160090556A1, “PRODUCTS COMPRISING MALODOR REDUCTION MATERIALS” (The Procter & Gamble Company, priority 2014, published 2016).

Assay: Liquid dish neat product liquid-air partition coefficient
Type: physicochemical
Conditions: for Log of liquid dish neat product liquid-air partition coefficient (Comment Code K/L): class code letter within Comment Code; for Comment Code: Log of liquid dish neat product liquid-air partition coefficient: code letters K, L

Compound | Log of liquid dish neat product liquid-air partition coefficient (Comment Code K/L) | Comment Code: Log of liquid dish neat product liquid-air partition coefficient
CC(C=O)Cc1cccc(C(C)(C)C)c1 (stereo not shown) [Material 134] | K (Log of liquid dish neat product liquid-air partition coefficient greater than or equal to −7) | –
CC(C)=CCCC(C)=CCCc1ccncc1 [Material 135] | K (Log of liquid dish neat product liquid-air partition coefficient greater than or equal to −7) | –
C=CCCCCCCC/C=C/CC#N [Material 137] | K (Log of liquid dish neat product liquid-air partition coefficient greater than or equal to −7) | –
Cc1cccc(CC(C)(C)CO)c1 [Material 140] | K (Log of liquid dish neat product liquid-air partition coefficient greater than or equal to −7) | –
CC1OC(C)C2Cc3ccccc3C2O1 (stereo not shown) [Material 141] | K (Log of liquid dish neat product liquid-air partition coefficient greater than or equal to −7) | K (Log of liquid dish neat product liquid-air partition coefficient greater than or equal to −7)
CC/C=C\CCC1=CCCC1=O [Material 146] | K (Log of liquid dish neat product liquid-air partition coefficient greater than or equal to −7) | –
C=CC(C)(CCC=C(C)C)OC(=O)C(C)C (stereo not shown) [Material 149] | K (Log of liquid dish neat product liquid-air partition coefficient greater than or equal to −7) | –
C=CC(C)(CCC=C(C)C)OC=O (stereo not shown) [Material 150] | – | K (Log of liquid dish neat product liquid-air partition coefficient greater than or equal to −7)
C=CC(C)(CCC=C(C)C)OC(=O)CCC (stereo not shown) [Material 151] | – | K (Log of liquid dish neat product liquid-air partition coefficient greater than or equal to −7)
C=CC(C)(CCC=C(C)C)OC(C)=O (stereo not shown) [Material 154] | – | K (Log of liquid dish neat product liquid-air partition coefficient greater than or equal to −7)
C=CC1(C)CCC(C(C)(C)O)O1 (stereo not shown) [Material 155] | K (Log of liquid dish neat product liquid-air partition coefficient greater than or equal to −7) | –
C=CC1(C)CCC(C(C)(C)O)O1 (stereo not shown) [Material 156] | K (Log of liquid dish neat product liquid-air partition coefficient greater than or equal to −7) | –
C=CC(C)(O)CCC=C(C)C (stereo not shown) [Material 157] | – | K (Log of liquid dish neat product liquid-air partition coefficient greater than or equal to −7)
CCC(C)=CCCC(C)=CC#N [Material 158] | K (Log of liquid dish neat product liquid-air partition coefficient greater than or equal to −7) | –
Cc1ccc2c(c1)CC(C)(CO)C2 (stereo not shown) [Material 161] | K (Log of liquid dish neat product liquid-air partition coefficient greater than or equal to −7) | –
CC(C=O)Cc1ccc(C(C)(C)C)cc1 (stereo not shown) [Material 162] | K (Log of liquid dish neat product liquid-air partition coefficient greater than or equal to −7) | –
C=C(C)C1CC=C(C)C(O)C1 (stereo not shown) [Material 170] | K (Log of liquid dish neat product liquid-air partition coefficient greater than or equal to −7) | –
CCCCCCCCCCCCOC(C)=O [Material 175] | K (Log of liquid dish neat product liquid-air partition coefficient greater than or equal to −7) | –
C=C1[C@H]2CC[C@H](CO)[C@@]23CC[C@H](C3)C1(C)C [Material 183] | K (Log of liquid dish neat product liquid-air partition coefficient greater than or equal to −7) | K (Log of liquid dish neat product liquid-air partition coefficient greater than or equal to −7)
CC1(CO)CC1CC1CC2CC2(C)C1(C)C (stereo not shown) [Material 185] | K (Log of liquid dish neat product liquid-air partition coefficient greater than or equal to −7) | K (Log of liquid dish neat product liquid-air partition coefficient greater than or equal to −7)
CC1OCC(c2ccccc2)O1 (stereo not shown) [Material 190] | K (Log of liquid dish neat product liquid-air partition coefficient greater than or equal to −7) | –
CC1=CCC(C)C(C)C12C=CC(C)O2 (stereo not shown) [Material 192] | K (Log of liquid dish neat product liquid-air partition coefficient greater than or equal to −7) | –
CCCCCCCCCCCCCC(=O)OC(C)C [Material 196] | K (Log of liquid dish neat product liquid-air partition coefficient greater than or equal to −7) | –
CCCCCCCCCCCC(=O)OC(C)C [Material 197] | K (Log of liquid dish neat product liquid-air partition coefficient greater than or equal to −7) | –

Compound | Log of liquid dish neat product liquid-air partition coefficient (Comment Code K/L) | Comment Code: Log of liquid dish neat product liquid-air partition coefficient
CC1CCCCCCCCCCCCC(=O)C1 (stereo not shown) [Material 206] | K (Log of liquid dish neat product liquid-air partition coefficient greater than or equal to −7) | K (Log of liquid dish neat product liquid-air partition coefficient greater than or equal to −7)
CC=Cc1ccc(OC(C)=O)c(OC)c1 [Material 213] | – | K (Log of liquid dish neat product liquid-air partition coefficient greater than or equal to −7)
CC=Cc1ccc(O)c(OC)c1 [Material 214] | – | K (Log of liquid dish neat product liquid-air partition coefficient greater than or equal to −7)
CC(=O)[C@@]1(C)CC2=C(CCCC2(C)C)C[C@@H]1C [Material 215] | K (Log of liquid dish neat product liquid-air partition coefficient greater than or equal to −7) | K (Log of liquid dish neat product liquid-air partition coefficient greater than or equal to −7)
CCC(=O)OC1CC2CCC1(C)C2(C)C (stereo not shown) [Material 228] | K (Log of liquid dish neat product liquid-air partition coefficient greater than or equal to −7) | –
CC(C)C(=O)OC1CC2CCC1(C)C2(C)C (stereo not shown) [Material 229] | K (Log of liquid dish neat product liquid-air partition coefficient greater than or equal to −7) | K (Log of liquid dish neat product liquid-air partition coefficient greater than or equal to −7)
CC1C2CC(CC2C2CCC(O)CC2)C1(C)C (stereo not shown) [Material 230] | K (Log of liquid dish neat product liquid-air partition coefficient greater than or equal to −7) | K (Log of liquid dish neat product liquid-air partition coefficient greater than or equal to −7)
C=CCCCCCCCCC(=O)OCCC(C)C [Material 234] | K (Log of liquid dish neat product liquid-air partition coefficient greater than or equal to −7) | –
CCCCCCCC(=O)OCCC(C)C [Material 237] | – | K (Log of liquid dish neat product liquid-air partition coefficient greater than or equal to −7)
CCCCCCCCCCCC(=O)OCCC(C)C [Material 238] | K (Log of liquid dish neat product liquid-air partition coefficient greater than or equal to −7) | –
c1ccc2c(c1)CC1COCOC21 (stereo not shown) [Material 247] | K (Log of liquid dish neat product liquid-air partition coefficient greater than or equal to −7) | –
CC1(C)C2=C(CO)CCC(C)(C)C23CCC1C3 (stereo not shown) [Material 248] | – | K (Log of liquid dish neat product liquid-air partition coefficient greater than or equal to −7)
CC(CCO)CCCC(C)(C)O (stereo not shown) [Material 249] | K (Log of liquid dish neat product liquid-air partition coefficient greater than or equal to −7) | –
CC(CO)C1CCCCCCCCCCC1 (stereo not shown) [Material 252] | K (Log of liquid dish neat product liquid-air partition coefficient greater than or equal to −7) | –
OCCCc1ccccc1 [Material 254] | K (Log of liquid dish neat product liquid-air partition coefficient greater than or equal to −7) | –
O=C(O)CCc1ccccc1 [Material 255] | – | K (Log of liquid dish neat product liquid-air partition coefficient greater than or equal to −7)
COC(OC)C(C)c1ccccc1 (stereo not shown) [Material 256] | K (Log of liquid dish neat product liquid-air partition coefficient greater than or equal to −7) | –
CC1(C)CCc2ccc(CCC=O)cc21 [Material 260] | K (Log of liquid dish neat product liquid-air partition coefficient greater than or equal to −7) | K (Log of liquid dish neat product liquid-air partition coefficient greater than or equal to −7)
CCCCCCCC(=O)OCCCCCC [Material 263] | K (Log of liquid dish neat product liquid-air partition coefficient greater than or equal to −7) | –
CCCCCCOC(=O)c1ccccc1 [Material 271] | K (Log of liquid dish neat product liquid-air partition coefficient greater than or equal to −7) | –
CC=C(C)C(=O)OCCC=CCC [Material 274] | K (Log of liquid dish neat product liquid-air partition coefficient greater than or equal to −7) | –
CCCCCCOC(=O)c1ccco1 [Material 275] | – | K (Log of liquid dish neat product liquid-air partition coefficient greater than or equal to −7)
O=C1CCCCCCCCCCCCCCCO1 [Material 277] | K (Log of liquid dish neat product liquid-air partition coefficient greater than or equal to −7) | –
